Measurements: patent US20070213291A1, “Therapeutically useful synthetic oligonucleotides” (priority 1999, published 2007)

How the values were obtained:
Type in all cases: cell-based
[1] = test system: Jurkat human leukemia T cells; assay: Inhibition of Jurkat human leukemia T cell proliferation (MTT reduction); settings: for % INHIBITION of Jurkat human leukemia T cell proliferation: 100 μg/ml sequence, 48 h, 2.5×10^5 cells/ml; for % INHIBITION of Jurkat proliferation at suboptimal concentration: 5.0 μg/ml of each 6 base sequence, alone or two together
Method: Cells were seeded in 6 (1 ml/well), 24 (0.5 ml/well) or 96 (0.1 ml/well) well flat-bottom microplates and were maintained at 37° C. in a 5% CO2 atmosphere. Unless stated otherwise, 2.5×10^5 cells/ml were incubated with 0 μg/ml (control) and 100 μg/ml (treated) of 2 to 45 base sequences containing A, C, G and T for 48 h.
MTT was measured at a wavelength of 570 nm using a multiplate spectrophotometer reader (ELX800, Bio-TEK Instruments Inc., Winooski, Vt.).
Jurkat human leukemia T cells are an atypical multi-drug resistant human suspension tumor cell model.

[2] = test system: THP-1 human acute monocytic leukemia cells; assay: Cytokine production by THP-1 cells (ELISA); settings: THP-1, 1×10^6 cells, 100 μg/ml, 48 h; for ↑ IL-12 (fold increase treated vs control cells): p70 complex and free p40
Method: (§1) Unless stated otherwise, 1×10^6 cells were incubated with 100 μg/ml of each of the sequences tested for 48 h at 37° C. in 5% CO2. Production of cytokines IL-6, IL-10, IL-12, IL-1beta and TNF-alpha was determined in pg/ml in 100 μl of culture supernatant using the appropriate commercial ELISA (BioSource, Camarillo Calif.). The IL-12 ELISA measures both IL-12 p70 complex and free p40 subunit. Results are expressed as the “fold” (×) increase in cytokine production by treated cells compared to control cells.
THP-1 human acute monocytic leukemia cells were incubated with 2, 3, 6, 9, 12, 14, 15 and 18 base GT sequences and production of the cyotkine IL-6 was determined (Table 35).
THP-1 human acute monocytic leukemia cells were incubated with 6 base GT, AG, CG, GG, AGT and CGT sequences and production of the cytokines IL-12 and IL-6 was determined (Table 36).
THP-1 human acute monocytic leukemia cells were incubated with 6 base GT sequences, having either an oxygen (phosphodiester) or a sulfur (phosphorothioate) as the nonbridging atom on the phosphate groups and production of the cytokine IL-12 was determined (Table 39).
THP-1 human acute monocytic leukemia cells were incubated with 6 base GT SEQ ID NO:25, having either an oxygen (phosphodiester) or a sulfur (phosphorothioate) as the nonbridging atom on the phosphate groups and production of the cytokine IL-12 was determined (Table 40).

[3] = test system: human peripheral blood mononuclear cells; assay: Cytokine production by human PBMC (ELISA); settings: PBMC of 7 healthy humans, 100 μg/ml, 48 h
Method: as §1
Peripheral blood mononuclear cells (hereinafter, “PBMCs”) were isolated from 7 healthy humans by Ficoll-Hypaque (Amersham Pharmacia Biotech, Baie d'Urfée, Québec, Canada) by density gradient centrifugation of whole blood. PBMCs were incubated with 6 base GT, AGT, CGT, AG, CG and GG sequences and production of the cytokines IL-1beta, IL-6, IL-10 and IL-12 were determined.

chimpanzee PBMCs = assay: Cytokine production by chimpanzee PBMC (ELISA); settings: PBMC of 4 healthy chimpanzees, 100 μg/ml, 48 h
Method: as §1
PBMCs were isolated from 4 healthy chimpanzees as in Example 35. Chimpanzee PBMCs were incubated with 6 base GT, AGT, CGT, AG, CG and GG sequences and production of the cytokines IL-10, IL-12 and TNF-alpha was determined (Table 41).

rhesus monkey PBMCs = assay: Cytokine production by rhesus monkey PBMC (ELISA); settings: PBMC of 4 healthy rhesus monkeys, 100 μg/ml, 48 h
Method: as §1
PBMCs were isolated from 4 healthy rhesus monkeys as in Example 35. PBMCs were incubated with 6 base GT, AGT, CGT, AG, CG ands GG sequences and production of the cytokines IL-6, IL-12 and TNF-alpha was determined (Table 42).

[4] = test system: Jurkat human leukemia T cells; assay: Cell cycle stage in Jurkat cells (propidium iodide flow cytometry); settings: Jurkat, 24 h, 100 μg/ml
Method: Cell cycle stage was determined using a […]™ PLUS DNA commercial kit (Becton Dickinson). Briefly, nuclei from cells were obtained by dissolving the cell membrane in a nonionic detergent, eliminating the cell cytoskeleton and nuclear proteins with trypsin, digesting the cellular RNA with RNase and stabilizing the nuclear chromatin with spermine. Propidium iodide was added to the cell nuclei and their fluorescence was analyzed in a flow cytometer equipped with electronic doublet discrimination capability (FACSCalibur, Becton Dickinson, San Jose, Calif.). Accumulation of cells in G0/G1, early S (SE), mid S (SM), late S (SL) or G2/M phases of the cell cycle was analyzed using MODFIT LT software (Verity Software House Inc., Topsham, Mass.).
Exponentially growing Jurkat human leukemia T cells (Table 28) and MCF-7 human breast cancer cells (5×10^5 cells/ml) (Table 29) were incubated for 24 h with 2, 6, 15, 18, 27 and 45 base sequences containing A, C, G and T. The cells were collected and centrifuged and cell cycle stage was determined.
Jurkat human cell leukemia T cells (1×10^6 cells/ml) were incubated for 24 h with 6 base GT SEQ ID NO:25, conplementary 6 base AC SEQ ID NO:79 and 6 base GT SEQ ID NO:25+6 base AC SEQ ID NO:79. GT SEQ ID NO:25 and AC SEQ ID NO:79 were hybridized by mixing the oligonucleotides (1:1) and heating for 10 minutes at 65° C. As controls, GT SEQ ID NO:25 and AC SEQ ID NO:79 were heated for 10 minutes at 65° C. (Table 30).

Sequence	% INHIBITION of Jurkat human leukemia T cell proliferation [1]	↑ IL-6 (fold increase treated vs control cells) [2]	↑ IL-12 (fold increase treated vs control cells) [2]	IL-1 beta fold increase: mean +/− SD [3]	IL-6 fold increase: mean +/− SD [3]	IL-10 fold increase: mean +/− SD [3]	IL-12 fold increase: mean +/− SD [3]	IL-10 fold increase: mean +/− SD (chimpanzee PBMCs)	IL-12 fold increase: mean +/− SD (chimpanzee PBMCs)	TNF-alpha fold increase: mean +/− SD (chimpanzee PBMCs)	IL-10 fold increase: mean +/− SD (rhesus monkey PBMCs)	IL-12 fold increase: mean +/− SD (rhesus monkey PBMCs)	TNF-alpha fold increase: mean +/− SD (rhesus monkey PBMCs)	% of cells in phase: G0/G1 [4]	% of cells in phase: G2/M [4]	% of cells in phase: SE [4]	% of cells in phase: SL [4]	% of cells in phase: SM [4]	Arrest (cell cycle) [4]	% INHIBITION of Jurkat proliferation at suboptimal concentration [1]
ATGTAT (unmodified DNA) [SEQ ID NO:30]	16%	9.8x	4.8x	1.1 +/− 0.2 fold increase	4.6 +/− 4.4 fold increase	1.0 +/− 0.1 fold increase	1.3 +/− 0.2 fold increase	1.4 +/− 0.4 fold increase	10.7 +/− 7.0 fold increase	5.9 +/− 3.3 fold increase	1.9 +/− 1.4 fold increase	6.0 +/− 1.9 fold increase	6.9 +/− 4.7 fold increase							
CTGTCT [SEQ ID NO:36]	19%	15.9x	2.0x	1.2 +/− 0.3 fold increase	5.3 +/− 3.6 fold increase	1.0 +/− 0.1 fold increase	1.2 +/− 0.3 fold increase	3.0 +/− 2.1 fold increase	13.4 +/− 8.9 fold increase	12.4 +/− 6.3 fold increase	1.0 +/− 0.1 fold increase	10.7 +/− 4.6 fold increase	15.3 +/− 3.6 fold increase							
GGAAGG (unmodified DNA) [SEQ ID NO:42]	22%	29.2x	4.1x	3.5 +/− 3.9 fold increase	11.8 +/− 5.8 fold increase	1.1 +/− 0.2 fold increase	3.0 +/− 2.7 fold increase	9.9 +/− 8.9 fold increase	15.6 +/− 10.6 fold increase	14.4 +/− 7.1 fold increase	1.2 +/− 0.2 fold increase	11.9 +/− 5.4 fold increase	16.5 +/− 4.5 fold increase	48.0%	34.1%	19.8%	5.8%	8.5%	End	
GGCCGG [SEQ ID NO:43]	29%	17.1x	3.1x	1.5 +/− 0.9 fold increase	14.9 +/− 10.2 fold increase	1.2 +/− 0.3 fold increase	2.5 +/− 2.0 fold increase	13.6 +/− 9.0 fold increase	15.1 +/− 10.2 fold increase	14.0 +/− 6.6 fold increase	1.0 +/− 0.2 fold increase	11.7 +/− 4.8 fold increase	16.9 +/− 3.5 fold increase	26.5%	18.7%	21.3%	10.7%	22.8%	End SM	
GGTTGG [SEQ ID NO:41]	43%	16.0x	3.3x	3.2 +/− 3.0 fold increase	7.8 +/− 12.8 fold increase	1.0 +/− 0.1 fold increase	4.9 +/− 8.6 fold increase	9.1 +/− 7.7 fold increase	15.3 +/− 10.0 fold increase	14.1 +/− 7.3 fold increase	1.9 +/− 1.5 fold increase	11.5 +/− 5.9 fold increase	14.1 +/− 8.2 fold increase							4%
TCGTTC [SEQ ID NO:37]	20%	12.9x	2.2x	1.2 +/− 0.4 fold increase	7.5 +/− 9.8 fold increase	1.0 +/− 0.1 fold increase	1.4 +/− 1.1 fold increase	3.4 +/− 2.6 fold increase	14.1 +/− 10.0 fold increase	11.4 +/− 6.4 fold increase	1.1 +/− 0.2 fold increase	10.0 +/− 3.8 fold increase	14.7 +/− 3.1 fold increase							
TGGTTG [SEQ ID NO:29]	42%	10.5x	4.1x	1.7 +/− 1.0 fold increase	9.3 +/− 12.1 fold increase	1.0 +/− 0.1 fold increase	3.3 +/− 4.2 fold increase	3.1 +/− 2.0 fold increase	13.6 +/− 8.8 fold increase	12.4 +/− 7.3 fold increase	1.1 +/− 0.2 fold increase	11.1 +/− 4.2 fold increase	16.5 +/− 2.7 fold increase							−1%
TGTGTGTGTGTG [SEQ ID NO:13]	49%	5.7x		2.4 +/− 1.9 fold increase	12.1 +/− 6.5 fold increase	1.2 +/− 0.4 fold increase	4.4 +/− 5.3 fold increase													
